In PMC9202104 (BMC Biology, 2022):
Where two headings read alike, the source gives them in different places.

Experiments:
[1] = system: ZIKV infection; conditions: read-out: IC50 against ZIKV infection (reported); cited from earlier work
[2] = system: ZIKV human strain PAN2016 (2016/Panama); assay: Plaque assay, inhibition of ZIKV infection (strain PAN2016)
Description: (§1) After removal of the unbound compounds by centrifugation (after addition of 3% PEG-6000), ZIKV was incubated with Vero E6 cells in 24-well plates at 37°C for 1 h. The cells were then washed with PBS, overlaid with DMEM containing 1% carboxymethyl cellulose and 2% FBS, and cultured at 37°C for 4–5 days, followed by being stained with 0.5% crystal violet. […] Plaques in each well were calculated, and IC50 of compounds for each compound was calculated using the CalcuSyn computer program.

[3] = system: ZIKV mosquito strain MEX 2-81; assay: Plaque assay, inhibition of ZIKV infection (strain MEX 2-81); assay type: cell-based; conditions: Zika virus, Vero C1008; plaque assay, Vero E6 cells, mosquito strain; read-out: IC50 MEX 2-81
Description: as §1

[4] = system: ZIKV rhesus macaque strain MR 766; assay: Plaque assay, inhibition of ZIKV infection (strain MR 766); assay type: cell-based; conditions: Zika virus, Vero C1008; plaque assay, Vero E6 cells, rhesus strain; read-out: IC50 MR 766
Description: as §1

[5] = system: ZIKV human strain R116265; assay: Plaque assay, inhibition of ZIKV infection (strain R116265); assay type: cell-based; conditions: Zika virus, Vero C1008, Vero E6 cells
Description: as §1

[6] = system: ZIKV human strain PAN2015; assay: Plaque assay, inhibition of ZIKV infection (strain PAN2015); assay type: cell-based; conditions: Zika virus, Vero C1008, Vero E6 cells
Description: as §1

[7] = system: ZIKV human strain FLR; assay: Plaque assay, inhibition of ZIKV infection (strain FLR); assay type: cell-based; conditions: Zika virus, Vero C1008; plaque assay, Vero E6 cells, human strain; read-out: IC50 FLR
Description: as §1

[8] = system: ZIKV human strain R103451; assay: Plaque assay, inhibition of ZIKV infection (strain R103451); assay type: cell-based; conditions: Zika virus, Vero C1008; plaque assay, Vero E6 cells, human strain; read-out: IC50 R103451
Description: as §1

[9] = system: ZIKV human strain PRVABC59; assay: Plaque assay, inhibition of ZIKV infection (strain PRVABC59); assay type: cell-based; conditions: Zika virus, Vero C1008; plaque assay, Vero E6 cells, human strain; read-out: IC50 PRVABC59
Description: as §1

[10] = system: ZIKV human strain PLCal_ZV; assay: Plaque assay, inhibition of ZIKV infection (strain PLCal_ZV); assay type: cell-based; conditions: Zika virus, Vero C1008; plaque assay, Vero E6 cells, human strain; read-out: IC50 PLCal_ZV
Description: as §1

[11] = system: ZIKV human strain IbH 30656; assay: Plaque assay, inhibition of ZIKV infection (strain IbH 30656); assay type: cell-based; conditions: Zika virus, Vero C1008; plaque assay, Vero E6 cells, human strain; read-out: IC50 IbH 30656
Description: as §1

[12] = system: 8 human ZIKV strains (PAN2016, R116265, PAN2015, FLR, R103451, PRVABC59, PLCal_ZV, IbH 30656); assay: microbe, parasite or virus in culture; assay type: cell-based; conditions: Zika virus, read-out: Average IC50 (human strains)
Description: as §1

[13] = Cytotoxicity, Cell Counting Kit-8, Vero E6 cells; assay type: cell-based; conditions: African green monkey, CC50 Vero E6
Description: (§2) Briefly, compounds at 2-fold serial dilutions were added to the respective cells (2.0×10^4/well) pre-seeded in 96-well plates. The cells were cultured at 37°C in the presence of 5% CO2 for 3 days, […] incubated with CCK8 solution, followed by measurement of absorbance at 450 nm (A450 value), using a microplate reader (Infinite F200PRO, Tecan, Morrisville, NC, USA). CC50 of compounds was calculated using the CalcuSyn program.

[14] = system: Vero E6 cells; assay: Cytotoxicity, Cell Counting Kit-8, Vero E6 cells; assay type: cell-based; conditions: African green monkey, 3 days
Description: as §2

[15] = Zika virus, Vero C1008, in Homo sapiens, read-out: IC50 against infection of ZIKV PAN2016, plaque assay, Vero E6 cells

## CC(=O)Oc1ccccc1C(=O)Nc1ncc([N+](=O)[O-])s1 [Nitazoxanide]
[1]
  IC50: 15.9 µM

## Oc1cccc(-c2c3nc(c(-c4cccc(O)c4)c4ccc([nH]4)c(-c4cccc(O)c4)c4nc(c(-c5cccc(O)c5)c5ccc2[nH]5)CC4)C=C3)c1 [Temoporfin]
[1]
  IC50: 1.1 µM

## Cc1cc2c(C(C)C)c(O)c(O)c3c2c(c1-c1c(C)cc2c(C(C)C)c(O)c(O)c4c2c1OC4N)OC3N (centres unmarked) [ST069299]
[2]; [15]
  IC50: 2300 nM
[2]; read-out: IC50 against infection of ZIKV PAN2016, plaque assay, Vero E6 cells
  IC50: 2340 ± 60 nM
[3]
  IC50: 3.9 µM
[4]
  IC50: 4.9 µM
[5]
  IC50: 2600 nM
[6]
  IC50: 2300 nM
[7]
  IC50: 3.3 µM
[8]
  IC50: 3.9 µM
[9]
  IC50: 3.3 µM
[10]
  IC50: 4 µM
[11]
  IC50: 2500 nM
[12]
  IC50: 3000 nM
[13]
  CC50 at 3 days: 25.9 µM
[14]
  CC50: 25.9 ± 2.7 µM

## Cc1cc2c(c(O)c1-c1c(C)cc3c(c1O)/C(=C/NCCO)C(=O)C(O)=C3C(C)C)/C(=C/NCCO)C(=O)C(O)=C2C(C)C [ST004331]
[2]; CC50 Vero E6 / IC50 ZIKV PAN2016
  SI (CC50/IC50): 1.20
[2]; [15]
  IC50: 35020 ± 350 nM
[13]
  CC50 at 3 days: 42.3 ± 1.17 µM

## CC(C)OC(=O)[C@H](C)N[P@](=O)(OC[C@H]1O[C@@H](n2ccc(=O)[nH]c2=O)[C@](C)(F)[C@@H]1O)Oc1ccccc1 [Sofosbuvir]
[1]
  IC50: 9.6 µM
